Data: patent US4789543A, “Neutral technetium 99-m complexes useful as radiodiagnostic agents” (E. I. Du Pont de Nemours and Company, priority 1984, dated 1988)

What was measured:
[1] = tested on: hepatobiliary transit (liver, gall bladder and gastro-intestinal tract); test: Visualization of hepatobiliary transit by scintillation camera after intravenous injection (rabbit); type: in vivo, male New Zealand Albino rabbit
Procedure: A lyophylized vial of HEPATOLITE™ (New England Nuclear Corporation's brand of Technetium Tc^99m Disofenin) is labelled with ^99m Tc-pertechnetate in accordance with manufacturer's directions. At least 1 mCi of the labelled preparation is injected intravenously into a 2.5 Kg male New Zealand Albino rabbit. The rabbit is positioned under a Searle Pho-Gamma scintillation camera in such a way that the liver and gastro-intestinal tract are within the field of view.
Greater than 1 mCi of the ^99m Tc-Cl(SO2)-DMPE complex from either Example 1 or 2 is injected into a rabbit as in Example 3.

[2] = tested on: hepatobiliary transit; settings: commercially available agent, background statement; cited from earlier work

SMILES: CC(C)c1cccc(C(C)C)c1NC(=O)CN(CC(=O)O)CC(=O)O (99mTc complex, metal not drawn) [Disofenin]
- sequential images from the time of injection ([1]; 2.5 Kg male rabbit, at least 1 mCi i.v.): initial liver uptake with gradual visualization of the gall bladder and gastro-intestinal tract, analogous to the diagnostically efficacious results obtained in clinical studies of normal healthy humans
- time to images of the liver, gall bladder and gastro-intestinal tract (hepatobiliary transit) ([1]; rabbit, > 1 mCi (complex) or at least 1 mCi (Disofenin) i.v., sequential images): about 30 minutes
- time to obtain an image of the hepatobiliary transit [2]: ≤ 30 min
